This passage reports IC50 results from patent publication US9670227B2, “Thienopyrimidine derivatives, a process for their preparation and pharmaceutical compositions containing them” (LES LABORATOIRES SERVIER, priority 2013, dated 2017).

Test [1] concerns H929 multiple myeloma tumour line. Kind of test: In vitro cytotoxicity, Microculture Tetrazolium Assay. It is filed as cell-based. On the procedure:
The cytotoxicity studies were carried out on the H929 multiple myeloma tumour line.
The cells are distributed onto microplates and exposed to the test compounds for 48 hours.

Test [2] concerns the target Mcl-1 protein (UniProtKB primary accession number: Q07820) (Homo sapiens, UniProt Q07820). In words: Inhibition of Mcl-1 by fluorescence polarisation, Method 1. It is filed as binding. To be noted: read-out: IC50 (M) Mcl-1 FP. A digest of the protocol:
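FP readout of relative binding potency. Mcl-1 5 nM final, fluorescein-labelled ligand 1 nM final; buffer 10 mM HEPES, 150 mM NaCl, 0.05% Tween 20, pH 7.4; 11-pt dilution series, 5% DMSO final.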
Background: In fluorescence polarisation assays a small probe gives low polarisation when free and higher when bound to something large.

[3] abbreviates: H929 cells, 48 hours exposure, MTT, read-out: IC50 (μM) MTT H929.
Setting [4] is: fluorescence polarisation test, Method 2 values are underlined in the patent (underlining not visible here).
The mark [5] stands for this setting: Homo sapiens, NCI-H929, 48 h, H929 cells, 48 hours exposure, MTT, read-out: IC50 (μM) MTT H929.
[6] abbreviates: Homo sapiens, NCI-H929, 48 h, read-out: IC50 (μM) MTT H929, H929 cells, 48 hours exposure, MTT.
Where [7] appears, read: fluorescence polarisation, Method 1, or Method 2.

Where two headings read alike, the source gives them in different places.

Chain of Mcl-1 protein (Q07820 whole entry): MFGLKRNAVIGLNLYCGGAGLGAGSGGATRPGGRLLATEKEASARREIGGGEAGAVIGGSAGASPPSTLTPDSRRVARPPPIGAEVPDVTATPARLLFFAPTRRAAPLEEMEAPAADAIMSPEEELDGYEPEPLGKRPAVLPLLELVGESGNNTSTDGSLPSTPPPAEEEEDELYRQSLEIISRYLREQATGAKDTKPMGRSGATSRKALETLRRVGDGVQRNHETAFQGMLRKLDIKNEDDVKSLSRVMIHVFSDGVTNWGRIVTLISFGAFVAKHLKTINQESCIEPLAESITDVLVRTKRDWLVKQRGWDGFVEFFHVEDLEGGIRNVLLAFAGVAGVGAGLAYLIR

Regarding `Cc1c(-c2c(-c3ccc(F)cc3)sc3ncnc(OC(Cc4ccccc4OCc4cnccn4)C(=O)O)c23)ccc(OC2CCCN(C)C2)c1Cl` (single isomer, unassigned) [Example 141, (2R)-2-{[(5Sa)-5-{3-chloro-2-methyl-4-[((3S or R)-1-methylpiperidin-3-yl)oxy]phenyl}-6-(4-fluorophenyl)thieno[2,3-d]pyrimidin-4-yl]oxy}-3-[2-(pyrazin-2-ylmethoxy)phenyl]propanoic acid], the IC50 amounted to 0.27 µM in test [1] (setting [3]) and 3.1e-08 M in test [2] (setting [4]).

Turning to `Cc1c(-c2c(-c3ccc(F)cc3)sc3ncnc(OC(Cc4ccccc4OCc4cnccn4)C(=O)O)c23)ccc(OC2CCCN(C)C2)c1Cl` (single isomer, unassigned) [Example 142, (2R)-2-{[(5Sa)-5-{3-chloro-2-methyl-4-[((3R or S)-1-methylpiperidin-3-yl)oxy]phenyl}-6-(4-fluorophenyl)thieno[2,3-d]pyrimidin-4-yl]oxy}-3-[2-(pyrazin-2-ylmethoxy)phenyl]propanoic acid], the IC50 in test [1] (setting [3]) turned out to be 1.67 µM; in test [2] (setting [4]), 4.2e-08 M.

Turning to `COc1ccccc1CC(Oc1ncnc2sc(-c3ccco3)c(-c3ccc(OC4CCCN(C)C4)c(Cl)c3C)c12)C(=O)O` (single isomer, unassigned) [Example 301, (2R)-2-{[(5Sa)-5-{3-chloro-2-methyl-4-[((3R or S)-1-methylpiperidin-3-yl)oxy]phenyl}-6-(furan-2-yl)thieno[2,3-d]pyrimidin-4-yl]oxy}-3-(2-methoxyphenyl)propanoic acid], the results for the IC50 in test [1] (setting [3]) and in test [2] (setting [4]) were 0.108 µM and 1.2e-08 M, respectively.

Consider `COc1ccccc1CC(Oc1ncnc2sc(-c3ccco3)c(-c3ccc(OC4CCCN(C)C4)c(Cl)c3C)c12)C(=O)O` (single isomer, unassigned) [Example 302, (2R)-2-{[(5Sa)-5-{3-chloro-2-methyl-4-[((3S or R)-1-methylpiperidin-3-yl)oxy]phenyl}-6-(furan-2-yl)thieno[2,3-d]pyrimidin-4-yl]oxy}-3-(2-methoxyphenyl)propanoic acid], for which the IC50 in test [1] (setting [3]) turned out to be 1.59 µM; in test [2] (setting [4]), 1.4e-08 M.

On to `COc1ccccc1CC(Oc1ncnc2sc(-c3ccco3)c(-c3ccc(OC4CCNC4)c(Cl)c3C)c12)C(=O)O` (single isomer, unassigned) [Example 305, (2R)-2-({(5Sa)-5-[3-chloro-2-methyl-4-((3S or R)-pyrrolidin-3-yloxy)phenyl]-6-(furan-2-yl)thieno[2,3-d]pyrimidin-4-yl}oxy)-3-(2-methoxyphenyl) propanoic acid], for which the IC50 is 1.64 µM in test [1] (setting [5]) and 6.9e-08 M in test [2] (setting [4]).

With `COc1ccccc1CC(Oc1ncnc2sc(-c3ccco3)c(-c3ccc(OC4CCNC4)c(Cl)c3C)c12)C(=O)O` (single isomer, unassigned) [Example 306, (2R)-2-({(5Sa)-5-[3-chloro-2-methyl-4-((3R or S)-pyrrolidin-3-yloxy)phenyl]-6-(furan-2-yl)thieno[2,3-d]pyrimidin-4-yl}oxy)-3-(2-methoxyphenyl)propanoic acid], the IC50 in test [1] (setting [3]) was 1.12 µM; in test [2] (setting [4]), 1.4e-08 M.

In the case of `COc1ccccc1CC(Oc1ncnc2sc(-c3ccco3)c(-c3ccc(OC4CN5CCC4CC5)c(Cl)c3C)c12)C(=O)O` (single isomer, unassigned) [Example 307, (2R)-2-({(5Sa)-5-[4-((3S or R)-1-azabicyclo[2.2.2]oct-3-yloxy)-3-chloro-2-methylphenyl]-6-(furan-2-yl)thieno[2,3-d]pyrimidin-4-yl}oxy)-3-(2-methoxyphenyl)propanoic acid], the IC50 in test [1] (setting [5]) worked out at 0.998 µM; in test [2] (setting [4]), 8.3e-09 M.

Turning to `COc1ccccc1CC(Oc1ncnc2sc(-c3ccco3)c(-c3ccc(OC4CN5CCC4CC5)c(Cl)c3C)c12)C(=O)O` (single isomer, unassigned) [Example 308, (2R)-2-({(5Sa)-5-[4-((3R or S)-1-azabicyclo[2.2.2]oct-3-yloxy)-3-chloro-2-methylphenyl]-6-(furan-2-yl)thieno[2,3-d]pyrimidin-4-yl}oxy)-3-(2-methoxyphenyl)propanoic acid], the IC50 in test [1] (setting [3]) is 1.5 µM; in test [2] (setting [4]), 5.9e-09 M.

For the compound `COc1ccccc1CC(Oc1ncnc2sc(-c3ccco3)c(-c3ccc(OCC4CCCCN4C)c(Cl)c3C)c12)C(=O)O` (single isomer, unassigned) [Example 309, (2R)-2-{[(5Sa)-5-{3-chloro-2-methyl-4-[((2S or R)-1-methylpiperidin-2-yl)methoxy]phenyl}-6-(furan-2-yl)thieno[2,3-d]pyrimidin-4-yl]oxy}-3-(2-methoxyphenyl)propanoic acid], the IC50 in test [1] (setting [5]) is 1.48 µM; in test [2] (setting [4]), 1e-08 M.

`COc1ccccc1C[C@@H](Oc1ncnc2sc(-c3ccco3)c(-c3ccc(OCCN4CCN(C)CC4)c(F)c3C)c12)C(=O)O` (single isomer, unassigned) [Example 334]: the IC50 came out at 0.968 µM in test [1] (setting [6]) and 1.4e-08 M in test [2] (setting [4]).

For `COc1ccccc1CC(Oc1ncnc2sc(C3CCCO3)c(-c3ccc(OCCN4CCN(C)CC4)c(Cl)c3C)c12)C(=O)O` (single isomer, unassigned) [Example 591, (2R)-2-{[(5Sa)-5-{3-chloro-2-methyl-4-[2-(4-methylpiperazin-1-yl)ethoxy]phenyl}-6-((2R or S)-tetrahydrofuran-2-yl)thieno[2,3-d]pyrimidin-4-yl]oxy}-3-(2-methoxyphenyl)propanoic acid], the IC50 was determined as 1.67 µM in test [1] (setting [5]) and 6.5e-08 M in test [2] (setting [7]).

For `COc1ccccc1C[C@@H](Oc1ncnc2sc(-c3ccc(F)cc3)c(-c3ccc(CCCN4CCN(C)CC4)c(Cl)c3C)c12)C(=O)O` (single isomer, unassigned) [Example 654], the IC50 is 2.08 µM in test [1] (setting [6]) and 4e-08 M in test [2] (setting [7]).

As for `Cc1c(-c2c(-c3ccc(F)cc3)sc3ncnc(OC(Cc4ccccc4OCC(F)(F)F)C(=O)O)c23)ccc(OCC2CCCN2C)c1Cl` (single isomer, unassigned) [Example 658, (2R)-2-{[(5Sa)-5-{3-chloro-2-methyl-4-[((2S or R)-1-methylpyrrolidin-2-yl)methoxy]phenyl}-6-(4-fluorophenyl)thieno[2,3-d]pyrimidin-4-yl]oxy}-3-[2-(2,2,2-trifluoroethoxy)phenyl]propanoic acid], the IC50 is 1.71 µM in test [1] (setting [5]) and 1.8e-08 M in test [2] (setting [7]).

`COc1ccccc1C[C@@H](Oc1ncnc2sc(-c3ccc(F)cc3)c(-c3cc(F)c(OCCN4CCN(C)CC4)c(Cl)c3C)c12)C(=O)O` (single isomer, unassigned) [Example 664]: the IC50 in test [1] (setting [6]) came to 2.08 µM; in test [2] (setting [7]), 3.86e-08 M.

For the compound `COc1ccccc1C[C@@H](Oc1ncnc2sc(-c3cccc(F)c3F)c(-c3ccc(C#CCN4CCN(C)CC4)c(Cl)c3C)c12)C(=O)O` (single isomer, unassigned) [Example 717], the IC50 in test [1] (setting [6]) stood at 0.865 µM; in test [2] (setting [7]), 2.7e-08 M.

As for `COc1ccccc1-c1nccc(COc2ccccc2CC(Oc2ncnc3sc(-c4ccc(Oc5ccccc5)cc4)c(-c4ccc(OCCN5CCN(C)CC5)c(Cl)c4C)c23)C(=O)O)n1` (single isomer, unassigned) [Example 759], the IC50 is 0.054 µM in test [1] (setting [5]) and 9.06e-09 M in test [2] (setting [7]).

Consider `COc1ccc(-c2sc3ncnc(OC(Cc4ccccc4OCc4ccnc(-c5ccccc5OC)n4)C(=O)O)c3c2-c2ccc(OCCN3CCN(C)CC3)c(Cl)c2C)cc1` (single isomer, unassigned) [Example 760], for which the results for the IC50 in test [1] (setting [3]) and in test [2] (setting [7]) were 0.004 µM and 1.18e-09 M, respectively.

Turning to `COc1ccc(-c2sc3ncnc(OC(Cc4ccccc4OCc4ccnc(-c5ccccc5OC)n4)C(=O)O)c3c2-c2ccc(OCCN3CCN(C)CC3)c(Cl)c2C)cc1` (single isomer, unassigned) [Example 761], the figures for the IC50 in test [1] (setting [3]) and in test [2] (setting [7]) were 0.148 µM and 1.07e-07 M, respectively.

In the case of `COc1ccccc1-c1nccc(COc2ccccc2CC(Oc2ncnc3sc(-c4ccc(OCCN5CCOCC5)cc4)c(-c4ccc(OCCN5CCN(C)CC5)c(Cl)c4C)c23)C(=O)O)n1` (single isomer, unassigned) [Example 764], the IC50 in test [1] (setting [5]) was determined as 0.019 µM; in test [2] (setting [7]), 1.35e-09 M.

Turning to `COc1ccccc1-c1nccc(COc2ccccc2CC(Oc2ncnc3sc(-c4ccc(OCCc5ccccc5)cc4)c(-c4ccc(OCCN5CCN(C)CC5)c(Cl)c4C)c23)C(=O)O)n1` (single isomer, unassigned) [Example 766], the IC50 in test [1] (setting [5]) amounted to 0.037 µM; in test [2] (setting [7]), 3.66e-09 M.

Regarding `Cc1c(-c2c(-c3ccc(F)cc3)sc3ncnc(OC(Cc4ccccc4OCC(F)F)C(=O)O)c23)ccc(OCCN2CCN(C)CC2)c1Cl` [Example 4, (2R)-2-{[(5Sa)-5-{3-chloro-2-methyl-4-[2-(4-methylpiperazin-1-yl)ethoxy]phenyl}-6-(4-fluorophenyl)thieno[2,3-d]pyrimidin-4-yl]oxy}-3-[2-(2,2-difluoroethoxy)phenyl]propanoic acid], the IC50 in test [1] (setting [5]) came out at 0.192 µM; in test [2] (setting [4]), 1.6e-08 M.

Turning to `COc1cc(COc2ccccc2CC(Oc2ncnc3sc(-c4ccc(F)cc4)c(-c4ccc(OCCN5CCN(C)CC5)c(Cl)c4C)c23)C(=O)O)nc(-c2ccccc2)n1` [Example 7, (2R)-2-{[(5Sa)-5-{3-chloro-2-methyl-4-[2-(4-methylpiperazin-1-yl)ethoxy]phenyl}-6-(4-fluorophenyl)thieno[2,3-d]pyrimidin-4-yl]oxy}-3-{2-[(6-methoxy-2-phenylpyrimidin-4-yl)methoxy]phenyl}propanoic acid], the IC50 in test [1] (setting [5]) amounted to 0.066 µM; in test [2] (setting [4]) it was 8.6e-09 M.

In general, IC50 refers to the midpoint of a concentration-inhibition curve.
